According to patent US20260083865A1, “PROSTATE SPECIFIC MEMBRANE ANTIGEN (PSMA) LIGANDS AND USE THEREOF” (priority 2022, published 2026):
Where two headings read alike, the source gives them in different places. Numbered stars: 1 amine (or outer) side, 2 acyl side, 3 side chain; on linkers, the order of the positions; unused ones are H or OH. Bridge positions count the residues as written; N and C are the ends. Square brackets hold non-standard residues; d marks the D form. Side chains are listed from the residue outwards. Peptide text beside a SMILES is read from it. * marks the point of attachment. DOTA = O=C(O)CN1CCN(CC(=O)O)CCN(CC(=O)*)CCN(CC(=O)O)CC1; Phe(4-Cl) = N[C@@H](Cc1ccc(Cl)cc1)C(=O)O; Ethylenediamine = C(CN[*:2])N[*:1]; X1 = O=C(CC1CCN([*:1])CC1)[*:2]; Cit = NC(=O)NCCC[C@H](N)C(=O)O; Tle = CC(C)(C)[C@H](N)C(=O)O; Aib = CC(C)(N)C(=O)O; CO = O=C([*:1])[*:2]

What was measured:
[1] = target: T1, Fc-fusion protein of human PSMA (hPSMA-Fc) (Homo sapiens, UniProt Q04609); assay: Surface plasmon resonance assay (Biacore T200, single cycle kinetic); type: binding; details: read-out: pKD CAT (converted)
T1 construct: purchased Acro Biosystems PSA-H5264
T1 sequence (Q04609 44-750 limits assumed): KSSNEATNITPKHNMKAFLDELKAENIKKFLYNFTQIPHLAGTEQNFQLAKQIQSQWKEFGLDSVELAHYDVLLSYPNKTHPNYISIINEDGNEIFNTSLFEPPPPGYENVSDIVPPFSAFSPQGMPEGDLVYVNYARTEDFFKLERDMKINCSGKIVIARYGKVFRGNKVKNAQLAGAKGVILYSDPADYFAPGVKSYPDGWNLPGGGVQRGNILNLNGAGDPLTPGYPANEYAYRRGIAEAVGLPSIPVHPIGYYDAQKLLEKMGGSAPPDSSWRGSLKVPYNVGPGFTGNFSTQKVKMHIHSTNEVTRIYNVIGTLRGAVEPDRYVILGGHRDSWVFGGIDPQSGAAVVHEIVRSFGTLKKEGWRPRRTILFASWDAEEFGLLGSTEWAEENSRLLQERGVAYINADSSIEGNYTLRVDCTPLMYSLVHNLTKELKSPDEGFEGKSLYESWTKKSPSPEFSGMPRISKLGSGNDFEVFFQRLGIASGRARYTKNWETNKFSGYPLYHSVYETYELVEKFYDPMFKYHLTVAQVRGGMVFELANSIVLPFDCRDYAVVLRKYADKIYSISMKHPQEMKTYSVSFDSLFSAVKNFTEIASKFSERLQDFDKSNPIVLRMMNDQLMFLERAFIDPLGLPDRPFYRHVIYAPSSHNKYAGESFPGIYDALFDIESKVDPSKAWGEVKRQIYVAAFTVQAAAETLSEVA
Procedure, shortened: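 KD, expressed as pKD, came from 1:1 Langmuir fits of reference- and buffer-blank-subtracted SPR data. The runs were single-cycle kinetics at 25° C in HBST/0.1% DMSO over human PSMA-Fc, captured to ~1000 RU on a peptide-coated CM5 surface and regenerated with 10 mM glycine pH 1.5.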

[2] = target: T2, PSMA-expressing C4-2 cells (Homo sapiens, UniProt Q04609); assay: FACS binding assay (competition with 50 nM PSM-0183); details: C4-2 cells, read-out: pIC50 [C4-2] CAT (converted)
T2 construct: PSMA-expressing C4-2 cells (ATCC, Cat. No. CRL-3314) were cultured in RPMI-1640; host or cells: C4-2 cells
T2 sequence (Q04609 whole entry): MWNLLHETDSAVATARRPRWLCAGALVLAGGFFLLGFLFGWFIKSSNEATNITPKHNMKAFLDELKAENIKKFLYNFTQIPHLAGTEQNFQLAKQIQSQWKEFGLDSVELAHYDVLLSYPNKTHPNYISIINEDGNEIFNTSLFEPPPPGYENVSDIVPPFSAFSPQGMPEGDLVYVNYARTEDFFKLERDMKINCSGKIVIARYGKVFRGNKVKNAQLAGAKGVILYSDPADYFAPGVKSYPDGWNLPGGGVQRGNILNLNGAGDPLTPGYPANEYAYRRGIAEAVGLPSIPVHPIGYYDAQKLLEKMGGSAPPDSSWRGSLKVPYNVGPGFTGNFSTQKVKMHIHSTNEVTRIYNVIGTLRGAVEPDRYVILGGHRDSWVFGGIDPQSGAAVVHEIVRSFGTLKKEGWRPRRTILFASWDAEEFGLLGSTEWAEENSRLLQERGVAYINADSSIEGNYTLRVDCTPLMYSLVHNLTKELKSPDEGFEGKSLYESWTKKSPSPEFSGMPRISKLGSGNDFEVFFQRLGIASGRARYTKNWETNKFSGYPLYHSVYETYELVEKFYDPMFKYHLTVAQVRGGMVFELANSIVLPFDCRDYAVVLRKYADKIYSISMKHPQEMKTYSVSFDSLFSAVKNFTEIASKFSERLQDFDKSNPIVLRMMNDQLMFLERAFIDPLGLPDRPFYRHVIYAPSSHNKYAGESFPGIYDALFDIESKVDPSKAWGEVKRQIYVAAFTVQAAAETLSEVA
Procedure, shortened: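 Competition format: fluorescent tracer PSM-0183 (50 nM) displaced from PSMA on C4-2 cells by a test compound titration over 1 h at 4 °C. Bound tracer was quantified as flow-cytometric AF488 median fluorescence after washing. Four-parameter logistic fits of MFI data gave IC50 and pIC50.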

[3] = test system: PC3-PIP tumor model; set-up: species or system mice; details: mouse, in vivo
From the text: Radioactively labeled compounds can be detected by imaging methods such as SPECT and PET. Furthermore, the data acquired by such techniques can be confirmed by direct measurement of radioactivity contained in the individual organs prepared from an animal injected with a radioactively labeled compound of the disclosure. Thus, the biodistribution (the measurement of radioactivity in individual organs) of a radioactively labeled compound can be determined and analyzed. […] All animal experiments were conducted in compliance with the German animal protection laws. Male swiss or NMRI nude mice (6-8 weeks old, Janvier Labs, France) were inoculated with 5×10^6 PC3-PIP cells in the right shoulder. For selected compounds an additional model was used, here male NMRI nude mice (6-8 weeks old, Janvier Labs, France) were inoculated with 5×10^6 or/1×10^7 C4-2 cells in the right shoulder. When tumors reached an appropriate size, the mice received ˜30 MBq ^111In-labeled compounds of the disclosure (diluted to 100 μL with PBS) administered intravenously via the tail vein. Images were obtained on a NanoSPECT/computed tomography system (Mediso Medical Imaging Systems, Budapest, Hungary) using exemplarily the following acquisition and reconstruction parameters (Table 10). [table] Imaging data were saved as DICOM files and analysed using VivoQuant™ software (Invicro, Boston, USA). In brief, regions of interest (ROIs) were drawn based on computed tomography images for the relevant organs and tissue regions such as heart (estimate of blood pool, bps), kidney, and tumor. The resulting numeric data expressed as a percentage of injected dose per gram of tissue (% ID/g) are presented in FIGS. 3(a)-3(ii) for the PC3-PIP model and FIGS. 4(a)-4(r) for the C4-2 model. Bars show mean % ID/g values of two to three animals per time point. Error bars indicate the value range (minimum and maximum values).

[4] = pKD category for PSMA SPR activity assay, hPSMA-Fc, 25° C.

Kd ([1]; PSMA SPR assay, category) [nM]	IC50 ([2]; FACS binding, category) [nM]	AUC ratio [T/K] [3]	Tumor AUC [3] [% ID/g*h]	Kd [1, 4] [nM]	IC50 ([2]; pIC50 category of FACS binding) [nM]	SMILES
< 12.6	< 200	1.6	110			C[C@@H](O)[C@H](NC(=O)[C@@H](NC(=O)[C@@H]1CSSC[C@H](NC(=O)[C@H](Cc2ccccc2)NC(=O)C(C)(C)NC(=O)[C@@H](NC(=O)CN2CCN(CC(=O)O)CCN(CC(=O)O)CCN(CC(=O)O)CC2)[C@@H](C)O)C(=O)N[C@@H](CCCCN)C(=O)N[C@@H](CCCNC(=N)N)C(=O)NC(C)(C)C(=O)N[C@@H](CC(N)=O)C(=O)N1)C(C)(C)C)C(N)=O [PSM-0580, DOTA-Thr-Aib-Phe-[Cys-Lys-Arg-Aib-Asn-Cys]-Tle-Thr-NH2] ({DOTA}-T[Aib]FCKR[Aib]NC[Tle]T-NH2; disulfide 4-9)
< 12.6	< 200	0.6	110			CCNC(=O)NC(=N)NCCC[C@@H]1NC(=O)[C@H](CCCCN)NC(=O)[C@@H](NC(=O)[C@H](Cc2ccc(Cl)cc2)NC(=O)C(C)(C)NC(=O)[C@@H](NC(=O)CC2CCN(C(=O)CN3CCN(CC(=O)O)CCN(CC(=O)O)CCN(CC(=O)O)CC3)CC2)[C@@H](C)O)CSSC[C@@H](C(=O)N[C@H](C(=O)N[C@H](C(N)=O)[C@@H](C)O)C(C)(C)C)NC(=O)[C@H](CC(N)=O)NC(=O)C(C)(C)NC1=O [PSM-0579, DOTA-Cmp-Thr-Aib-Pcf-[Cys-Lys-Arg(EtCAyl)-Aib-Asn-Cys]-Tle-Thr-NH2] ({DOTA}-[X1]T[Aib][Phe(4-Cl)]CKR([CO-NHEt])[Aib]NC[Tle]T-NH2; disulfide 5-10)
		1.2	170	< 12.6	< 200	CC(=O)N[C@H](C(=O)NC(C)(C)C(=O)N[C@@H](Cc1ccccc1)C(=O)N[C@H]1CSSC[C@@H](C(=O)N[C@H](C(=O)N[C@H](C(=O)N2CCC(CC(=O)N[C@H](CCCCNC(=O)CN3CCN(CC(=O)O)CCN(CC(=O)O)CCN(CC(=O)O)CC3)C(N)=O)CC2)[C@@H](C)O)C(C)(C)C)NC(=O)[C@H](CC(N)=O)NC(=O)C(C)(C)NC(=O)[C@H](CCCNC(=N)N)NC(=O)[C@H](CCCCN)NC1=O)[C@@H](C)O [PSM-0428, Ac-Thr-Aib-Phe-[Cys-Lys-Arg-Aib-Asn-Cys]-Tle-Thr-Cmp-lys(DOTA)-NH2] (Ac-T[Aib]FCKR[Aib]NC[Tle]T[X1][dK](DOTA)-NH2; disulfide 4-9)

Second part, the compound before the results:

SMILES	Kd ([1]; PSMA SPR assay, category) [nM]	IC50 ([2]; FACS binding, category) [nM]	AUC ratio [T/K] [3]	Tumor AUC [3] [% ID/g*h]	Kd [1, 4] [nM]	IC50 ([2]; pIC50 category of FACS binding) [nM]
C[C@@H](O)[C@H](NC(=O)CC1CCN(C(=O)CN2CCN(CC(=O)O)CCN(CC(=O)O)CCN(CC(=O)O)CC2)CC1)C(=O)NC(C)(C)C(=O)N[C@@H](Cc1ccc(Cl)cc1)C(=O)N[C@H]1CSSC[C@@H](C(=O)N[C@H](C(=O)NCCN)C(C)(C)C)NC(=O)[C@H](CC(N)=O)NC(=O)C(C)(C)NC(=O)[C@H](CCCNC(=N)N)NC(=O)[C@H](CCCCN)NC1=O [PSM-0384, DOTA-Cmp-Thr-Aib-Pcf-[Cys-Lys-Arg-Aib-Asn-Cys]-Tle-en] ({DOTA}-[X1]T[Aib][Phe(4-Cl)]CKR[Aib]NC[Tle]-Ethylenediamine; disulfide 5-10)			0.30	220	< 12.6	< 200
C[C@@H](O)[C@H](NC(=O)[C@@H](NC(=O)[C@@H]1CSSC[C@H](NC(=O)[C@H](Cc2ccc(Cl)cc2)NC(=O)C(C)(C)NC(=O)[C@@H](NC(=O)CC2CCN(C(=O)CN3CCN(CC(=O)O)CCN(CC(=O)O)CCN(CC(=O)O)CC3)CC2)[C@@H](C)O)C(=O)N[C@@H](CCCCN)C(=O)N[C@@H](CCCNC(N)=O)C(=O)NC(C)(C)C(=O)N[C@@H](CC(N)=O)C(=O)N1)C(C)(C)C)C(N)=O [PSM-0365, DOTA-Cmp-Thr-Aib-Pcf-[Cys-Lys-Cit-Aib-Asn-Cys]-Tle-Thr-NH2] ({DOTA}-[X1]T[Aib][Phe(4-Cl)]CK[Cit][Aib]NC[Tle]T-NH2; disulfide 5-10)			1.6	140	< 12.6	< 200
